Measured values: US20230167088A1, “1-PYRAZINYLPYRAZOLYL-3-OXYALKYL ACIDS AND THEIR DERIVATIVES, AND THEIR USE FOR CONTROL OF UNDESIRED PLANT GROWTH” (BAYER AKTIENGESELLSCHAFT, priority 2020, published 2023)

What was measured:
MATIN [1] = test: Herbicidal pre-emergence action 2b (doubly sown, 1280 g/ha); assay type: in vivo, Matricaria inodora; conditions: doubly sown pots, dosage 1280 g/ha, visual scoring after about 3 weeks
Procedure, shortened: (§1)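 Compounds were sprayed pre-emergence as wettable powders or emulsion concentrates onto soil covering freshly sown weed seeds, two species per pot. Percent activity was judged by eye roughly 3 weeks later versus untreated plants.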

MATIN [2] = test: Herbicidal pre-emergence action 2a (greenhouse pots, visual scoring); assay type: in vivo, Matricaria inodora; conditions: dosage 320 g/ha, visual scoring after about 3 weeks vs untreated controls
Procedure, shortened: (§2)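 Visual scoring after roughly 3 weeks, as percent effect relative to untreated pots (0% = like control, 100% = dead). Seeds were covered with soil, then the surface received aqueous WP/EC suspension or emulsion (0.5% additive, 600 l/ha) at 320 and/or 80 g/ha.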

POLCO [3] = test: Herbicidal post-emergence action 1a (greenhouse pots, visual rating); assay type: in vivo, Polygonum convolvulus; conditions: visual rating about 3 weeks after treatment
Procedure, shortened: (§3)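 Visual scoring versus untreated plants (100% = plants dead, 0% = as control) followed roughly 3 weeks in the greenhouse after treatment. Plants grown in sandy loam pots had been sprayed on green parts at the one-leaf stage, 2–3 weeks post-sowing, with aqueous WP/EC preparations containing 0.5% additive, 600 l/ha, at 320 and/or 80 g/ha.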

PHBPU = test: as above; assay type: in vivo, Pharbitis purpurea; conditions: visual rating about 3 weeks after treatment
Procedure, shortened: as §3

ECHCG = test: Herbicidal pre-emergence action 2b (doubly sown, 1280 g/ha); assay type: in vivo, Echinochloa crus-galli; conditions: doubly sown pots, dosage 1280 g/ha, visual scoring after about 3 weeks
Procedure, shortened: as §1

VERPE [4] = test: Herbicidal pre-emergence action 2a (greenhouse pots, visual scoring); assay type: in vivo, Veronica persica; conditions: dosage 320 g/ha, visual scoring after about 3 weeks vs untreated controls
Procedure, shortened: as §2

LOLRI [5] = test: as above; assay type: in vivo, Lolium rigidum; conditions: dosage 320 g/ha, visual scoring after about 3 weeks vs untreated controls
Procedure, shortened: as §2

DIGSA = test: as above; assay type: in vivo, Digitaria sanguinalis; conditions: dosage 320 g/ha, visual scoring after about 3 weeks
Procedure, shortened: as §2

MATIN [6] = test: Herbicidal post-emergence action 1b (twin sowing, 1280 g/ha); assay type: in vivo, Matricaria inodora; conditions: dosage 1280 g/ha, visual rating about 3 weeks after treatment
Procedure, shortened: (§4)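 Greenhouse weed pairs (mono- with dicotyledonous) were treated 2–3 weeks after sowing, at one leaf, using an aqueous spray at 600 L/ha carrying 0.5% additive. Percent activity, judged by eye against untreated plants, was recorded roughly 3 weeks post-application.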

AMARE [7] = test: Herbicidal pre-emergence action 2a (greenhouse pots, visual scoring); assay type: in vivo, Amaranthus retroflexus; conditions: dosage 320 g/ha, visual scoring after about 3 weeks vs untreated controls
Procedure, shortened: as §2

VIOTR = test: Herbicidal post-emergence action 1a (greenhouse pots, visual rating); assay type: in vivo, Viola tricolor; conditions: dosage 320 g/ha, visual rating about 3 weeks after treatment
Procedure, shortened: as §3

POAAN [8] = test: Herbicidal post-emergence action 1b (twin sowing, 1280 g/ha); assay type: in vivo, Poa annua; conditions: dosage 1280 g/ha, visual rating about 3 weeks after treatment
Procedure, shortened: as §4

AMARE [9] = test: Herbicidal post-emergence action 1a (greenhouse pots, visual rating); assay type: in vivo, Amaranthus retroflexus; conditions: visual rating about 3 weeks after treatment
Procedure, shortened: as §3

MATIN [10] = test: as above; assay type: in vivo, Matricaria inodora; conditions: visual rating about 3 weeks after treatment
Procedure, shortened: as §3

LOLRI [11] = test: as above; assay type: in vivo, Lolium rigidum; conditions: Dosage 320 g/ha; rated visually about 3 weeks after treatment; 100% = plants have died, 0% = like control plants
Procedure, shortened: as §3

VERPE [12] = test: as above; assay type: in vivo, Veronica persica; conditions: dosage 320 g/ha, visual rating about 3 weeks after treatment
Procedure, shortened: as §3

STEME [13] = test: Herbicidal pre-emergence action 2a (greenhouse pots, visual scoring); assay type: in vivo, Stellaria media; conditions: dosage 320 g/ha, visual scoring after about 3 weeks vs untreated controls
Excerpt: [table] a) Seeds of monocotyledonous and dicotyledonous weed plants and crop plants are placed in plastic or organic plant pots and covered with soil. The compounds of the invention, formulated in the form of wettable powders (WP) or as emulsion concentrates (EC), are then applied onto the surface of the covering soil as aqueous suspension or emulsion with addition of 0.5% additive at a water application rate of 600 1/ha (converted). After the treatment, the pots are placed in a greenhouse and kept under good growth conditions for the trial plants. After about 3 weeks, the effect of the preparations is scored visually in comparison with untreated controls as percentages. For example, 100% activity=the plants have died, 0% activity=like control plants. Tables B1 to B15 below show the effects of selected compounds of the general formula (I) according to Tables 1 and 2 on various harmful plants and an application rate corresponding to 320 g/ha and/or 80 g/ha, which were obtained by the experimental procedure mentioned above.

AMARE [14] = test: Herbicidal pre-emergence action 2b (doubly sown, 1280 g/ha); assay type: in vivo, Amaranthus retroflexus; conditions: doubly sown pots, dosage 1280 g/ha, visual scoring after about 3 weeks
Procedure, shortened: as §1

STEME [15] = test: Herbicidal post-emergence action 1b (twin sowing, 1280 g/ha); assay type: in vivo, Stellaria media; conditions: dosage 1280 g/ha, visual rating about 3 weeks after treatment
Procedure, shortened: as §4

ALOMY [16] = test: Herbicidal pre-emergence action 2a (greenhouse pots, visual scoring); assay type: in vivo, Alopecurus myosuroides; conditions: dosage 320 g/ha, visual scoring after about 3 weeks
Procedure, shortened: as §2

STEME [17] = test: Herbicidal post-emergence action 1a (greenhouse pots, visual rating); assay type: in vivo, Stellaria media; conditions: Dosage 320 g/ha; rated visually about 3 weeks after treatment; 100% = plants have died, 0% = like control plants
Description: [table] a) Seeds of monocotyledonous and dicotyledonous weeds and crop plants are placed in sandy loam in plastic or organic plant pots, covered with soil and cultivated in a greenhouse under controlled growth conditions. 2 to 3 weeks after sowing, the test plants are treated at the one-leaf stage. The compounds of the invention, formulated in the form of wettable powders (WP) or as emulsion concentrates (EC), are then sprayed onto the green parts of the plants as aqueous suspension or emulsion with addition of 0.5% additive at a water application rate of 600 1/ha (converted). After the test plants have been kept in the greenhouse under optimum growth conditions for about 3 weeks, the activity of the preparations is rated visually in comparison to untreated controls. For example, 100% activity=the plants have died, 0% activity=like control plants. Tables A1 to A15 below show the effects of selected compounds of the general formula (I) according to Tables 1 and 2 on various harmful plants and an application rate corresponding to 320 g/ha and/or 80 g/ha, which were obtained by the experimental procedure mentioned above.

STEME [18] = test: Herbicidal pre-emergence action 2b (doubly sown, 1280 g/ha); assay type: in vivo, Stellaria media; conditions: doubly sown pots, dosage 1280 g/ha, visual scoring after about 3 weeks
Procedure, shortened: as §1

POLCO [19] = test: Herbicidal pre-emergence action 2a (greenhouse pots, visual scoring); assay type: in vivo, Polygonum convolvulus; conditions: dosage 320 g/ha, visual scoring after about 3 weeks vs untreated controls
Procedure, shortened: as §2

POAAN [20] = test: Herbicidal pre-emergence action 2b (doubly sown, 1280 g/ha); assay type: in vivo, Poa annua; conditions: doubly sown pots, dosage 1280 g/ha, visual scoring after about 3 weeks
Procedure, shortened: as §1

ALOMY [21] = test: Herbicidal post-emergence action 1a (greenhouse pots, visual rating); assay type: in vivo, Alopecurus myosuroides; conditions: Dosage 320 g/ha; rated visually about 3 weeks after treatment; 100% = plants have died, 0% = like control plants
Procedure, shortened: as §3

**Q.** How did the “Pre-emergence action at 1280 g/ha against MATIN in %” value (MATIN [1]) turn out when `O=C(O)COc1nn(-c2cnccn2)c(-c2cccc(F)c2)c1Br` [Example I-04] was run?
**A.** Its value is 100%.

**Q.** What about the “Pre-emergence action against MATIN in %” value (MATIN [2]) of the same compound?
**A.** Its value is 90%.

**Q.** What about the “Post-emergence action against POLCO in %” value (POLCO [3]; dosage 80 g/ha) of the same compound?
**A.** The value was 80%.

**Q.** What about the “Post-emergence action against POLCO in %” value (POLCO [3]; dosage 320 g/ha) of the same compound?
**A.** The value was 90%.

**Q.** And the “Post-emergence action against PHBPU in %” value (PHBPU; dosage 80 g/ha)?
**A.** Its value is 80%.

**Q.** What about the “Post-emergence action against PHBPU in %” value (PHBPU; dosage 320 g/ha) of the same compound?
**A.** The value was 80%.

**Q.** And the “Pre-emergence action at 1280 g/ha against ECHCG in %” value (ECHCG)?
**A.** The value was 100%.

**Q.** What about the “Pre-emergence action against VERPE in %” value (VERPE [4]) of the same compound?
**A.** Its value is 90%.

**Q.** And the “Pre-emergence action against LOLRI in %” value (LOLRI [5])?
**A.** The value was 90%.

**Q.** And the “Pre-emergence action against DIGSA in %” value (DIGSA)?
**A.** The value was 90%.

**Q.** What about the “Post-emergence action at 1280 g/ha against MATIN in %” value (MATIN [6]) of the same compound?
**A.** The value was 90%.

**Q.** What about the “Pre-emergence action against AMARE in %” value (AMARE [7]) of the same compound?
**A.** The value was 100%.

**Q.** And the “Post-emergence action against VIOTR in %” value (VIOTR)?
**A.** Its value is 80%.

**Q.** What about the “Post-emergence action at 1280 g/ha against POAAN in %” value (POAAN [8]) of the same compound?
**A.** The value was 90%.

**Q.** What about the “Post-emergence action against AMARE in %” value (AMARE [9]; dosage 80 g/ha) of the same compound?
**A.** Its value is 90%.

**Q.** And the “Post-emergence action against AMARE in %” value (AMARE [9]; dosage 320 g/ha)?
**A.** The value was 90%.

**Q.** And the “Post-emergence action against MATIN in %” value (MATIN [10]; dosage 80 g/ha)?
**A.** The value was 80%.

**Q.** And the “Post-emergence action against MATIN in %” value (MATIN [10]; dosage 320 g/ha)?
**A.** Its value is 90%.

**Q.** And the “Post-emergence action against LOLRI in %” value (LOLRI [11])?
**A.** The value was 80%.

**Q.** What about the “Post-emergence action against VERPE in %” value (VERPE [12]) of the same compound?
**A.** Its value is 80%.

**Q.** What about the “Pre-emergence action against STEME in %” value (STEME [13]) of the same compound?
**A.** The value was 90%.

**Q.** And the “Pre-emergence action at 1280 g/ha against AMARE in %” value (AMARE [14])?
**A.** Its value is 100%.

**Q.** And the “Post-emergence action at 1280 g/ha against STEME in %” value (STEME [15])?
**A.** Its value is 100%.

**Q.** And the “Pre-emergence action against ALOMY in %” value (ALOMY [16])?
**A.** Its value is 80%.

**Q.** What about the “Post-emergence action against STEME in %” value (STEME [17]) of the same compound?
**A.** Its value is 80%.

**Q.** And the “Pre-emergence action at 1280 g/ha against STEME in %” value (STEME [18])?
**A.** Its value is 100%.

**Q.** What about the “Pre-emergence action against POLCO in %” value (POLCO [19]) of the same compound?
**A.** Its value is 90%.

**Q.** What about the “Pre-emergence action at 1280 g/ha against POAAN in %” value (POAAN [20]) of the same compound?
**A.** Its value is 100%.

**Q.** And the “Post-emergence action against ALOMY in %” value (ALOMY [21])?
**A.** The value was 90%.
